Compared with COCCOc1ccc(CCCOC(=O)NCC2CC2)c(Oc2ncc(C(F)(F)F)cc2Cl)c1, Nc1ccc(-c2ncc(C(F)(F)F)cc2Cl)cc1[N+](=O)[O-] is higher in melting point: 87.8 to 87.9 °C for the first, 126 to 127 °C for the second.

Compared with Cn1c(COCCn2cnc3c(N)nc4ccccc4c32)cc2ccccc21, N#CC1=C(c2cc3ccccc3o2)Nc2n[nH]cc2C1c1cccc2nonc12 (stereo unspecified) is higher in melting point: 243 to 245 °C for the first, greater than 270 °C for the second.

First: O=Cc1cc(Br)cnc1Cl
Second: Cn1c(CO)nc2cc(Br)cnc21
The melting point of the first is lower: 88 to 89 °C for the first, 142 to 144 °C for the second.

Compared with CCCCNc1nc2cccc(C(=O)OC)c2n1Cc1ccc(-c2ccccc2-c2nnn[nH]2)cc1, CCNC(=O)c1cccc(-c2cccc3cc(Cc4cccc(C(F)(F)F)c4)sc23)c1 is lower in melting point: 163 to 167 °C for the first, 122 to 123 °C for the second.

Compared with CC(C)(O)CCCCCc1ccc(C=Cc2ccc(CO)c(CO)c2)cc1, CCCCCCCCCCOc1cnc(-c2ccc(CCCCCC(C)O)cc2)nc1 (stereo unspecified) is lower in melting point: 112 to 114 °C for the first, 78 to 79 °C for the second.

First: COc1cccnc1Br
Second: CCn1c(=O)c(C(=O)O)c(N)c2cccnc21
The melting point of the first is lower: 34 °C for the first, 245 to 248 °C for the second.

First: CCCCN(Cc1ccc(C#N)cc1Cl)c1c(NC(C)(C)C)c(=O)c1=O
Second: CNC(=O)c1cc(C#N)cc(C)c1NC(=O)c1cc(C(F)(F)F)nn1-c1ncccc1Cl
The melting point of the first is lower: 133 to 134 °C for the first, 214 to 216 °C for the second.

First: O=C1CCc2cc(NCC(=O)N3CCC(Cc4ccc(F)cc4)CC3)ccc2N1
Second: Cc1cc(Nc2ccnc(Nc3ccc(S(=O)(=O)N4CCC(CNCCC(=O)N(C)C)CC4)cc3)n2)ccc1F
The melting point of the first is lower: 197 to 200 °C for the first, 201 °C for the second.

Compared with CCCc1ccc(NC2CCN(c3ccc(OC[C@@]4(C)Cn5cc([N+](=O)[O-])nc5O4)cc3)CC2)cc1, COc1ccc(-c2ccc(C(=O)Nc3cc4ncc(CN5CCCC5)cc4cc3F)c(F)c2)cc1 is lower in melting point: 222 to 223 °C for the first, 174 to 176 °C for the second.

Compared with O=C(O)c1ccc(C(F)F)c2ccccc12, CN(C)C(=O)Nc1coc2ccccc2c1=S is lower in melting point: 179 to 180 °C for the first, 108 °C for the second.

First: CCOC(=O)c1c(N2CCCC2)c2cccnc2n(C)c1=O
Second: COc1cc2ncnc(NC3=CC(=O)C(N4CCCCC4)=CC3=O)c2cc1OC
The melting point of the first is lower: 118 to 120 °C for the first, 226 to 227 °C for the second.

Compared with COc1ccc(C(=C/C=C/C(=O)NCCCCc2cccnc2)c2ccc(OC)c(OC)c2)cc1OC, COc1cc(OC)c(-c2cccs2)cc1/C=C/C(=O)c1ccc(S(=O)(=O)Nc2ccon2)cc1 is higher in melting point: 145 to 146 °C for the first, 198 to 199 °C for the second.

First: CCC(CC)(COc1nn2ncnc2cc1C)CS(N)(=O)=O
Second: CCC(CC)c1ccc(Cl)c2nc3n(c12)CCCCN3c1ccc(C(=O)NC)cc1C
The melting point of the first is higher: 189 to 192 °C for the first, 127 to 128 °C for the second.

First: CC12CCC(O)CC1CCC1C2CCC2(C)C1CCC2(SCc1ccccc1)SCc1ccccc1 (stereo unspecified)
Second: CC1(C)Oc2ccc(S(=O)(=O)c3ccccc3)cc2[C@@H](O)[C@@H]1Br (relative stereo)
The melting point of the first is higher: 184 to 185 °C for the first, 103 to 105 °C for the second.

First: CC(=O)NCCC(=O)NCCO
Second: N=C(N)c1ccc(C(=O)N2CCCC2CC(=O)NCCC(=O)O)cc1 (stereo unspecified)
The melting point of the first is lower: 122 to 125 °C for the first, greater than 250 °C for the second.

Compared with CC(C)(C(CC(=O)c1ccccc1)c1cccnc1)[N+](=O)[O-] (stereo unspecified), Cc1noc(NS(=O)(=O)c2ccc(NCc3ccccc3)cc2)c1C is lower in melting point: 134 to 135 °C for the first, 47 to 48 °C for the second.

O=C(O)c1cc(F)c(F)cc1NC(=O)c1cc(-c2ccc(Cl)cc2)oc1C(F)(F)F and O=C(O)c1ccc(-c2nc3cc(Cl)c(Cl)cc3[nH]2)cc1 cannot be ordered by melting point: 337 to 340 °C for the first, greater than 250 °C for the second.

First: Oc1ccc(C2=NCCCO2)cc1
Second: COCCOC(=O)c1ccc(O)cc1
The melting point of the first is higher: 196 to 198 °C for the first, 90 to 93 °C for the second.

First: O=C(Nc1ccc(S(=O)(=O)c2ncccn2)cc1)C(O)(C(F)F)C(F)F
Second: NS(=O)(=O)c1ccc(-c2cnn(-c3ccc(F)c(F)c3)c(=O)c2Oc2ccc(F)cc2)cc1
The melting point of the first is lower: 209 to 210 °C for the first, 224 to 226 °C for the second.

First: COc1cc(C#N)ccc1C(Br)C(Br)C(=O)c1cccc(C#N)c1 (stereo unspecified)
Second: COc1ccc(C2CNCc3c2ccc(OC)c3C)cc1OC (stereo unspecified)
The melting point of the first is lower: 72 to 75 °C for the first, 128 to 129 °C for the second.

First: C[C@@H](CN1CCc2ccc3c(c21)CCO3)NC(=O)OC(C)(C)C
Second: CN(CCOc1cccc2ccn(C(=O)OC(C)(C)C)c12)C(=O)OC(C)(C)C
The melting point of the first is higher: 141 to 142 °C for the first, 74 to 76 °C for the second.

First: COc1ccc2c(=O)n3c(cc2c1)SCCC3
Second: O=c1c(Br)cc2cnc(Nc3ccccn3)nc2n1C1CCCC1
The melting point of the first is lower: 86 to 87 °C for the first, 273 to 275 °C for the second.

First: CCN(CC)C(Cc1cccs1)=Nc1ccc2sc3ccccc3c2c1
Second: CC(C)c1c(C=O)c(-c2ccc(F)cc2)nn1-c1ccccc1
The melting point of the first is higher: 114 to 115 °C for the first, 103 to 105 °C for the second.

Compared with CN(C)CCCCCC(=O)O, CC(C)(CN1CCC(CNC(=O)N2C(=O)C3(CCCC3)c3ccccc32)CC1)C(=O)O is higher in melting point: 89 to 91 °C for the first, 189 °C for the second.

First: NC(=O)CCC/C=C\[C@@H]1C[C@@H](NS(=O)(=O)c2ccc(Cl)cc2)CN1S(=O)(=O)c1ccc(Cl)cc1
Second: NC(=NOC1CCCCO1)Nc1c(Cl)cccc1Cl (stereo unspecified)
The melting point of the first is lower: 142 to 143 °C for the first, 178 to 180 °C for the second.

In the case of O=[N+]([O-])c1cccc2c(Cl)ccnc12, the melting point is reported as 144 to 146 °C.

Source: a melting point compilation (Tetko et al.; mined from patent text by program, amines drawn as free bases though some values may be those of a salt)
